Experimental data published in patent publication US20030143189A1, “Therapy for topical diseases” (priority 2001, published 2003).

System: plantar warts
Assay: Treatment of plantar warts on a patient's feet with in situ polymeric film versus freezing
Assay type: in vivo, human
Protocol: A patient presents to a dermatologist with two similar plantar warts on the soles of their left and right feet. The wart on the right foot is treated by freezing with liquid nitrogen.

Structure (SMILES): N#N [liquid nitrogen]
- pain caused by the treatment (freeze burn) (plantar wart on sole of foot): makes walking on the foot painful for several days
- time until the wart resolves (plantar wart on sole of foot, film re-applied every 3-4 days): 3 weeks
- return of the wart after resolution (plantar wart, film treatment continued two weeks after resolution): has returned after two months
